This note sets out measurements from ChEMBL document CHEMBL1201862, “PubChem BioAssay data set” (2004).

Some test systems named below: KM12; DU-145; SF-268; NCI-H460; SN12C; Malme-3M; EKVX; IGROV-1; U-251; A549; UO-31; OVCAR-8; SW-620; T47D; K562; MCF7; SK-MEL-5; Hs-578T; SK-MEL-28; 786-0.
Assay in all cases: growth of human tumour cells (NCI), 48 h

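Tested at 5 concentrations; 48 h exposure; 96-well plates; endpoints linearly interpolated, else capped at highest concentration. GI50 = concentration required for 50% inhibition of growth.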 Activity calls are given as the source filed them. No stated cut-off is given here; in the data, active = GI50 up to about 1.1 µM and inactive = higher.

As to `O=C(CCN1CCOCC1)Nc1ccc2sc3ccccc3c(=O)c2n1`, the GI50 with KM12 is 50.4 µM (inactive); in the assay on DU-145, 47 µM (inactive); with SF-268 it was 52.2 µM (inactive); in the assay on NCI-H460, 37.8 µM (inactive); in the assay on SN12C it was 35 µM (inactive); with Malme-3M, 20.7 µM (inactive). The GI50 is 58.2 µM (inactive) with EKVX; 30.1 µM (inactive) in the assay with IGROV-1; 42.9 µM (inactive) in the assay on U-251; 38.9 µM (inactive) in the assay with A549; 25.8 µM (inactive) in the assay on UO-31; 35.9 µM (inactive) with OVCAR-8. The GI50 is 27.4 µM (inactive) in the assay on SW-620; 20.6 µM (inactive) in the assay with T47D; 8.49 µM (inactive) with K562; 49.8 µM (inactive) with MCF7; 27.1 µM (inactive) in the assay with SK-MEL-5; 36.4 µM (inactive) in the assay on Hs-578T. The GI50 was 53.5 µM (inactive) with SK-MEL-28 and 31.6 µM (inactive) in the assay on 786-0.
As to `[O-][N+]1(CC[N+]2([O-])CCCCC2)CCCCC1`, the GI50 in the assay with KM12, in the assay with DU-145, in the assay with SF-268, with NCI-H460, with SN12C and in the assay with Malme-3M was > 100 µM (inactive) each time. In addition, the GI50 with EKVX, in the assay with IGROV-1, with U-251, in the assay with A549, with UO-31 and with OVCAR-8 was > 100 µM (inactive) in each case. The GI50 with SW-620, with T47D, with K562, in the assay with MCF7, in the assay with SK-MEL-5 and in the assay with Hs-578T was > 100 µM (inactive) each time. Moreover, the GI50 in the assay on SK-MEL-28 and in the assay on 786-0 was > 100 µM (inactive) throughout.
For the compound `S=C(Nc1cc(Cl)c(Cl)cc1Cl)SCc1ccccc1`, the GI50 in the assay with KM12 is 19.8 µM (inactive); in the assay on DU-145 it was 39.4 µM (inactive); with SF-268, 38.1 µM (inactive); in the assay with NCI-H460, 45.8 µM (inactive); in the assay with SN12C, > 100 µM (inactive); with Malme-3M, 28.2 µM (inactive). Further, the GI50 was 40.7 µM (inactive) with EKVX; 33.9 µM (inactive) with IGROV-1; 22.2 µM (inactive) in the assay on U-251; 30 µM (inactive) with A549; 40.6 µM (inactive) in the assay with UO-31; 20.1 µM (inactive) with OVCAR-8. The GI50 in the assay on SW-620 is 35.2 µM (inactive); in the assay on T47D it was 32.3 µM (inactive); in the assay with K562, 18.5 µM (inactive); in the assay on MCF7, 38.5 µM (inactive); in the assay on SK-MEL-5 it was 20.7 µM (inactive); with Hs-578T it was 34.3 µM (inactive). The GI50 was 28.6 µM (inactive) in the assay on SK-MEL-28 and 38.2 µM (inactive) in the assay on 786-0.
For the compound `CCOC(=O)/C=C(\C(=O)OCC)n1ccc(=O)n(Cc2cn(CCCCOC(C)=O)nn2)c1=O`, the GI50 in the assay with KM12 is 16 µM (inactive); in the assay on DU-145, 20.5 µM (inactive); in the assay on SF-268, 17.7 µM (inactive); with NCI-H460, 13.6 µM (inactive); in the assay on SN12C, 15.2 µM (inactive); with Malme-3M it was 2.18 µM (inactive). Moreover, the GI50 is 13 µM (inactive) in the assay on EKVX; 19.5 µM (inactive) with IGROV-1; 16.1 µM (inactive) in the assay on U-251; 21.9 µM (inactive) with A549; 15.3 µM (inactive) in the assay with UO-31; 7.01 µM (inactive) with OVCAR-8. The GI50 in the assay on SW-620 is 3.14 µM (inactive); with T47D, 5.36 µM (inactive); with K562, 4.59 µM (inactive); in the assay on MCF7, 7.69 µM (inactive); with SK-MEL-5, 20.5 µM (inactive); in the assay on Hs-578T, 22.7 µM (inactive). Besides, the GI50 in the assay on SK-MEL-28 was 8.17 µM (inactive); with 786-0 it was 7.66 µM (inactive).
On to `c1ccc(/C(=N\Nc2nc3ccccc3[nH]2)c2ccccn2)cc1`, for which the GI50 in the assay with KM12 was 0.735 µM (active); in the assay on DU-145 it was 2.13 µM (inactive); in the assay on SF-268, 0.443 µM (active); in the assay on NCI-H460, 0.617 µM (active); with SN12C, 0.415 µM (active); in the assay on Malme-3M it was 0.687 µM (active). Besides, the GI50 in the assay on EKVX was 0.47 µM (active); in the assay with IGROV-1, 0.262 µM (active); with U-251, 0.407 µM (active); in the assay with A549 it was 0.596 µM (active); in the assay with UO-31 it was 0.291 µM (active); in the assay on OVCAR-8, 0.254 µM (active). The GI50 in the assay on SW-620 was 0.204 µM (active); in the assay on T47D it was 0.136 µM (active); with K562, 0.222 µM (active); in the assay with MCF7, 0.148 µM (active); in the assay on SK-MEL-5, 0.427 µM (active); in the assay on Hs-578T, 5.5 µM (inactive). In addition, the GI50 in the assay with SK-MEL-28 was 1.14 µM (inactive); in the assay with 786-0 it was 0.31 µM (active).
On to `C#CCn1c(=O)ccn(/C(=C/C(=O)OCC)C(=O)OCC)c1=O`, for which the GI50 was 17.4 µM (inactive) with KM12; 13.8 µM (inactive) in the assay with DU-145; 13.1 µM (inactive) in the assay on SF-268; 2.69 µM (inactive) in the assay with NCI-H460; 9.08 µM (inactive) in the assay with SN12C; 1.96 µM (inactive) in the assay with Malme-3M. Moreover, the GI50 with EKVX is 5.62 µM (inactive); in the assay with IGROV-1, 4.21 µM (inactive); in the assay on U-251, 14.2 µM (inactive); with A549, 17.2 µM (inactive); in the assay with UO-31 it was 12.6 µM (inactive); in the assay with OVCAR-8 it was 2.2 µM (inactive). Besides, the GI50 is 1.86 µM (inactive) in the assay on SW-620; 2.67 µM (inactive) in the assay with T47D; 3.36 µM (inactive) in the assay with K562; 3.18 µM (inactive) in the assay with MCF7; 14.5 µM (inactive) in the assay on SK-MEL-5; 18.7 µM (inactive) in the assay with Hs-578T. For the same compound, the GI50 was 7.41 µM (inactive) in the assay on SK-MEL-28 and 3.41 µM (inactive) with 786-0.
With `Cc1ccc(/C=C2\CCC/C(=C\c3ccc(O)c(CN4CCCCC4)c3)C2=O)cc1`, the GI50 is 3.01 µM (inactive) in the assay with KM12; 4.91 µM (inactive) in the assay on DU-145; 3.14 µM (inactive) in the assay with SF-268; 3.96 µM (inactive) in the assay on NCI-H460; 9.82 µM (inactive) in the assay on SN12C; 17.3 µM (inactive) in the assay with Malme-3M. For the same compound, the GI50 in the assay on EKVX is 12.6 µM (inactive); with IGROV-1, 8.02 µM (inactive); in the assay with U-251, 5.27 µM (inactive); in the assay with A549, 9.4 µM (inactive); with UO-31, 11.2 µM (inactive); with OVCAR-8, 2.97 µM (inactive). Also, the GI50 is 3.6 µM (inactive) in the assay on SW-620; 13.4 µM (inactive) with T47D; 3.56 µM (inactive) in the assay on K562; 4.44 µM (inactive) with MCF7; 6.1 µM (inactive) in the assay on SK-MEL-5; 7.78 µM (inactive) with Hs-578T. Further, the GI50 in the assay on SK-MEL-28 was 15.7 µM (inactive); in the assay with 786-0 it was 3.72 µM (inactive).
As to `CN(C)CCNC(=O)c1cccc2c(NC(CCCNC(=N)N)C(=O)O)c3ccccc3[n+](C)c12` (stereo not given), the GI50 with KM12 was > 100 µM (inactive); with DU-145, 70.1 µM (inactive); in the assay with SF-268, 29 µM (inactive); in the assay on NCI-H460, 49.3 µM (inactive); with SN12C, 32.4 µM (inactive); in the assay on Malme-3M, 86.7 µM (inactive). Further, the GI50 with EKVX was > 100 µM (inactive); in the assay on IGROV-1, 59 µM (inactive); in the assay on U-251 it was > 100 µM (inactive); with A549, 78.5 µM (inactive); in the assay on UO-31, > 100 µM (inactive); in the assay with OVCAR-8, 92 µM (inactive). Besides, the GI50 with SW-620 is 53.5 µM (inactive); with T47D, 80.9 µM (inactive); in the assay with K562, > 100 µM (inactive); with MCF7, 45.4 µM (inactive); in the assay with SK-MEL-5, 40.1 µM (inactive); in the assay on Hs-578T, > 100 µM (inactive). Moreover, the GI50 in the assay on SK-MEL-28 is > 100 µM (inactive); with 786-0, 71 µM (inactive).
As to `COc1ccc(OC)c2sc(N3C(=O)/C(=C/c4ccc(Cl)cc4)N=C3c3ccccc3)nc12`, the GI50 in the assay on KM12 is 60 µM (inactive); in the assay on DU-145, > 100 µM (inactive); in the assay on SF-268, 98.9 µM (inactive); in the assay with NCI-H460, 80.5 µM (inactive); with SN12C, > 100 µM (inactive); in the assay on Malme-3M, > 100 µM (inactive). The GI50 is > 100 µM (inactive) in the assay with EKVX; 85.9 µM (inactive) in the assay on IGROV-1; 40.7 µM (inactive) with U-251; > 100 µM (inactive) in the assay on A549; > 100 µM (inactive) in the assay on UO-31; 60.3 µM (inactive) in the assay with OVCAR-8. Further, the GI50 in the assay on SW-620 was 67.9 µM (inactive); in the assay on T47D, 23.3 µM (inactive); in the assay on K562 it was 26.2 µM (inactive); in the assay on MCF7, 29.7 µM (inactive); with SK-MEL-5 it was 65 µM (inactive); in the assay with Hs-578T, > 100 µM (inactive). Also, the GI50 in the assay with SK-MEL-28 was > 100 µM (inactive); in the assay on 786-0 it was 73.3 µM (inactive).
Consider `COc1cc(C2c3cc4c(cc3[C@@H](Nc3ccc(C#N)cc3)C3COC(=O)[C@H]23)OCO4)cc(OC)c1O` (stereo not given in full), for which the GI50 is 5.33 µM (inactive) with KM12; 0.273 µM (active) in the assay on DU-145; 2.43 µM (inactive) with SF-268; 0.038 µM (active) in the assay with NCI-H460; 1.05 µM (active) in the assay on SN12C; 1.29 µM (inactive) in the assay on Malme-3M. Further, the GI50 is 16.7 µM (inactive) in the assay with EKVX; 6.78 µM (inactive) in the assay with IGROV-1; 1.43 µM (inactive) in the assay with U-251; 0.166 µM (active) with A549; 1.62 µM (inactive) in the assay on UO-31; 0.975 µM (active) in the assay on OVCAR-8. Besides, the GI50 in the assay on SW-620 was 0.889 µM (active); with T47D, 0.828 µM (active); in the assay on K562, 0.462 µM (active); in the assay on MCF7, 0.881 µM (active); in the assay with SK-MEL-5, 0.661 µM (active); in the assay with Hs-578T, 5.09 µM (inactive). For the same compound, the GI50 in the assay with SK-MEL-28 is 6.97 µM (inactive); in the assay with 786-0, 0.724 µM (active).
